From the NIST ThermoML archive (doi:10.1016/j.jct.2012.01.018)
Numbers after ± are expanded uncertainties.

Tests used:
[1] = Crystal; visual observation
[2] = molar enthalpy of vaporization or sublimation; conditions: 298.15 K; Crystal; drop calorimetry

Normal melting temperature [1]: 110 ± 1 °C | molar enthalpy [2]: 24.3 ± 2.06 kcal/mol
Compound: O=[N+]([O-])c1cccc2nsnc12 [4-nitro-2,1,3-benzothiadiazole]
